Several values for one entry are separate records, joined by “and”; a condition that tells them apart may be missing. Equal entries are not always repeated.
What follows are compounds tested on HCV replicon.
Format: cell-based

`CCOc1ccc2c(C#N)c(-c3ccc(NC(=O)OCC(C)C)cc3)n(CC3CC3)c2c1` [Compound 1151] and `CCOC(=O)Nc1ccc(-c2c(C#N)c3ccc(OCC)cc3n2CC2CC2)cc1` [Compound 1148] cannot be ordered by IC50: under 0.5 µM for the first, under 0.5 µM for the second.

`CC(C)NC(=O)Nc1ccc(-c2c(C#N)c3ccc(OCCCn4ccnc4)cc3n2C2CCC2)cc1` [Compound 1308] and `CC(C)OC(=O)Nc1ccc(-c2c(C#N)c3ccc(OCCn4ccnc4)cc3n2C2CCC2)cc1` [Compound 1275] cannot be ordered by IC50: under 0.5 µM for the first, under 0.5 µM for the second.

`CC(C)OC(=O)Nc1ccc(-c2c(C#N)c3ccc(OCCN4CCCC4)cc3n2C2CCC2)cc1` [Compound 1142] and `CC1CCN(CCOc2ccc3c(C#N)c(-c4ccc(NC(=O)OC(C)C)cc4)n(C4CCC4)c3c2)CC1` [Compound 1272] cannot be ordered by IC50: under 0.5 µM for the first, under 0.5 µM for the second.

`CCNC(=O)Nc1ccc(-c2c(C#N)c3cc(OC)ccc3n2CC)cc1` [Compound 1009] and `CCCCNC(=O)Nc1ccc(-c2c(C#N)c3cc(OC)ccc3n2CC)cc1` [Compound 1012] fall in the same range of IC50: 0.5 to 2 µM for the first, 0.5 to 2 µM for the second.

Compared with `CCn1c(-c2ccc(N(C)S(=O)(=O)CC)cc2)c(C#N)c2ccc(C(F)(F)F)cc21` [Compound 1005], `CCCS(=O)(=O)Nc1ccc(-c2c(C#N)c3ccc(OC(F)(F)F)cc3n2CC)cc1` [Compound 882] is lower in IC50: 0.5 to 2 µM for the first, under 0.5 µM for the second.

`CCOc1ccc2c(C#N)c(-c3ccc(NC(=O)NC4CCCC4)cc3)n(CC3CC3)c2c1` [Compound 1173] and `CCOc1ccc2c(c1)c(C#N)c(-c1ccc(NC(=O)NC3CCCC3)cc1)n2C1CCC1` [Compound 1226] cannot be ordered by IC50: under 0.5 µM for the first, under 0.5 µM for the second.

`CCOc1ccc2c(C#N)c(-c3ccc(NP(=O)(OCC)OCC)cc3)n(C3CCC3)c2c1` [Compound 936] and `CCCS(=O)(=O)Nc1ccc(-c2c(C#N)c3ccc(OCC)cc3n2C2CCC2)cc1` [Compound 932] cannot be ordered by IC50: under 0.5 µM for the first, under 0.5 µM for the second.

`CCn1c(-c2ccc(N)cc2)c(C#N)c2ccc(OC(F)F)cc21` [Compound 870] and `CCOc1ccc2c(C#N)c(-c3ccc(NC(=O)CC)cc3)n(CC)c2c1` [Compound 896] fall in the same range of IC50: 0.5 to 2 µM for the first, 0.5 to 2 µM for the second.

`CCOC(=O)Nc1ccc(-c2c(C#N)c3ccc(OC)cc3n2CC)cc1F` [Compound 876] and `CCNC(=O)Nc1ccc(-c2c(C#N)c3ccc(OC)cc3n2CC)cc1F` [Compound 909] fall in the same range of IC50: 0.5 to 2 µM for the first, 0.5 to 2 µM for the second.

`CCOc1ccc2c(c1)c(C#N)c(-c1ccc(NC(=O)OCC3(C)CC3)cc1)n2C1CCC1` [Compound 1294] and `CCOc1ccc2c(C#N)c(-c3ccc(NC(=O)OCC4(C)CC4)cc3)n(C3CCC3)c2c1` [Compound 1208] cannot be ordered by IC50: under 0.5 µM for the first, under 0.5 µM for the second.

`C=CCNC(=O)Nc1ccc(-c2c(C#N)c3cc(OC)ccc3n2CCC)cc1` [Compound 1001] and `CCCn1c(-c2ccc(NC(=O)NC(C)CC)cc2)c(C#N)c2ccc(OC)cc21` (centres unmarked) [Compound 1119] fall in the same range of IC50: 0.5 to 2 µM for the first, 0.5 to 2 µM for the second.

Compared with `CCOc1ccc2c(C#N)c(-c3ccc(NC(=O)OCCCN4CCOCC4)cc3)n(C3CCC3)c2c1` [Compound 1210], `CCOc1ccc2c(C#N)c(-c3ccc(NC(=O)OCCN4CCOCC4)cc3)n(C3CCC3)c2c1` [Compound 1192] is higher in IC50: under 0.5 µM for the first, 0.5 to 2 µM for the second. The first is the more potent here.

First: CCOc1ccc2c(C#N)c(-c3ccc(NC(=O)OC4CCOCC4)cc3)n(C3CCC3)c2c1 [Compound 1216]
Second: CCOc1ccc2c(C#N)c(-c3ccc(NC(=O)OC4CCCC4)cc3)n(C3CCC3)c2c1 [Compound 1109]
The IC50 of the first is higher: 0.5 to 2 µM for the first, under 0.5 µM for the second.

`CCOc1ccc2c(C#N)c(-c3ccc(NC(=O)NC(C)C)cc3)n(CC3CCC3)c2c1` [Compound 1171] and `CCOc1ccc2c(C#N)c(-c3ccc(NC(=O)NC(C)C)cc3)n(C3CCCC3)c2c1` [Compound 1221] cannot be ordered by IC50: under 0.5 µM for the first, under 0.5 µM for the second.

`CCCNC(=O)Nc1ccc(-c2c(C#N)c3ccc(OCC)cc3n2CCC)cc1` [Compound 1095] and `CCn1c(-c2ccc(NC(=O)OCCF)cc2)c(C#N)c2ccc(OCCCCl)cc21` [Compound 1033] cannot be ordered by IC50: under 0.5 µM for the first, under 0.5 µM for the second.

`CC(C)NC(=O)Nc1ccc(-c2c(C#N)c3ccc(OCCn4cncn4)cc3n2C2CCC2)cc1` [Compound 1318] and `CC(C)NC(=O)Nc1ccc(-c2c(C#N)c3ccc(OCCN4CCC4)cc3n2C2CCC2)cc1` [Compound 1316] cannot be ordered by IC50: under 0.5 µM for the first, under 0.5 µM for the second.

`CC(C)n1c(-c2ccc(NC(=O)O[C@H](C)C3CC3)cc2)c(C#N)c2ccc(Oc3ncccn3)cc21` [Compound 2208] and `CCCOc1ccc2c(C#N)c(-c3ccc(NC(=O)OC(C)CC)cc3)n(C(C)C)c2c1` (centres unmarked) [Compound 1246] cannot be ordered by IC50: under 0.5 µM for the first, under 0.5 µM for the second.

Compared with `COc1ccc2c(C#N)c(-c3ccc(NC(=O)NC(C)C)cc3)n(C3CCC3)c2c1` [Compound 1082], `CC(C)NC(=O)Nc1ccc(-c2c(C#N)c3ccc(OCc4cccnc4)cc3n2C2CCC2)cc1` [Compound 1212] is lower in IC50: 0.5 to 2 µM for the first, under 0.5 µM for the second. The second is the more potent here.

Compared with `COc1ccc2c(c1)c(C#N)c(-c1ccc(NC(=O)NC3CCCC3)cc1)n2C1CCC1` [Compound 1165], `COc1ccc2c(c1)c(C#N)c(-c1ccc(NC(=O)OCC(C)C)cc1)n2C1CCC1` [Compound 1178] is lower in IC50: 0.5 to 2 µM for the first, under 0.5 µM for the second.

Compared with `CC(OC(=O)Nc1ccc(-c2c(C#N)c3ccc(OCC4CCCO4)cc3n2C2CCC2)cc1)C1CC1` (centres unmarked) [Compound 1281], `CC(C)OC(=O)Nc1ccc(-c2c(C#N)c3ccc(OCCCN4CCOCC4)cc3n2C2CCC2)cc1` [Compound 1253] is higher in IC50: under 0.5 µM for the first, 0.5 to 2 µM for the second. The first is the more potent here.

`COC(=O)c1ccc2c(C#N)c(-c3ccc(NC(=O)OC(C)C)cc3)n(C3CCC3)c2c1` [Compound 1300] and `CCN(CC)CCOc1ccc2c(C#N)c(-c3ccc(NC(=O)OC(C)C)cc3)n(C3CCC3)c2c1` [Compound 1278] cannot be ordered by IC50: under 0.5 µM for the first, under 0.5 µM for the second.

`CCCn1c(-c2ccc(NS(=O)(=O)CC)cc2)c(C#N)c2ccc(OCc3ccccc3)cc21` [Compound 922] and `CCCn1c(-c2ccc(NS(C)(=O)=O)cc2)c(C#N)c2ccc(OCc3ccccc3)cc21` [Compound 921] fall in the same range of IC50: 0.5 to 2 µM for the first, 0.5 to 2 µM for the second.

Compared with `CCCOC(=O)Nc1ccc(-c2c(C#N)c3ccc(OCCCN4CCOCC4)cc3n2CC)cc1` [Compound 1122], `CCn1c(-c2ccc(NC(=O)C3CC3)cc2)c(C#N)c2ccc(OCCN3CCSCC3)cc21` [Compound 1090] is higher in IC50: under 0.5 µM for the first, 0.5 to 2 µM for the second. The first is the more potent here.

`COCCn1c(-c2ccc(N3CCCS3(=O)=O)cc2)c(C#N)c2ccc(OC(F)(F)F)cc21` [Compound 906] and `CCn1c(-c2ccc(N3CCOC3=O)cc2)c(C#N)c2ccc(OCCCCl)cc21` [Compound 1052] fall in the same range of IC50: 0.5 to 2 µM for the first, 0.5 to 2 µM for the second.

First: CCn1c(-c2ccc(NS(=O)(=O)C3CC3)cc2)c(C#N)c2cc3c(cc21)OCO3 [Compound 1038]
Second: CCOc1ccc2c(C#N)c(-c3ccc(NC(=O)OCc4ccccc4)cc3)n(CC3CC3)c2c1 [Compound 1153]
The IC50 of the first is higher: 0.5 to 2 µM for the first, under 0.5 µM for the second. The second is the more potent here.

For `CCn1c(-c2ccc(N3CCCS3(=O)=O)cc2)c(C#N)c2ccc(OC(F)F)cc21` [Compound 1026], the IC50 was 0.5 to 2 µM and < 0.5 µM.
For `CCn1c(-c2ccc(NS(=O)(=O)CC)cc2)c(C#N)c2ccc(C(=O)OC)cc21` [Compound 968], the IC50 was < 0.5 µM and 0.5 to 2 µM.
In the case of `CC(C)COC(=O)Nc1ccc(-c2c(C#N)c3ccc(OC(F)F)cc3n2CC2CC2)cc1` [Compound 1071], the IC50 is reported as 0.5 to 2 µM and > 2 µM.
`CCCOC(=O)Nc1ccc(-c2c(C#N)c3cc(OC)ccc3n2C2CCC2)cc1` [Compound 1177] was tested, and the IC50 was < 0.5 µM and 0.5 to 2 µM.
For `CCCOC(=O)Nc1ccc(-c2c(C#N)c3ccc(OCC)cc3n2CCC)cc1` [Compound 1055], the IC50 was 0.5 to 2 µM and < 0.5 µM.
In the case of `CCN(c1ccc(-c2c(C#N)c3ccc(C(F)(F)F)cc3n2CC)cc1)S(=O)(=O)CC` [Compound 1006], the IC50 is reported as < 0.5 µM and 0.5 to 2 µM.
